Measured values from patent publication US20010034328A1, “Treatment of male chronic pelvic pain syndrome” (priority 2000, published 2001).

Columns and labels:
[1] = test system: male subjects having a clinical diagnosis of chronic pelvic pain syndrome; assay: treatment of male subjects with chronic pelvic pain syndrome with 600-900 mg per day; type: in vivo, human; conditions: 600, 700, 800 or 900 mg per day orally, up to sixteen weeks or more
Procedure: Utilizing capsules prepared as above and 100 mg capsules available from ALZA Corporation as appropriate to meet the daily dosing requirements, male subjects having a clinical diagnosis of chronic pelvic pain syndrome are treated with 600, 700, 800 or 900 mg per day of pentosan polysulfate sodium for up to sixteen weeks, generally 1-2 weeks, 2-4 weeks, 4-8 weeks, 8-16 weeks or up to 32 weeks or more. The daily doses may be administered in multiple doses, generally three times per day with each dose containing equal amounts of pentosan polysulfate. As examples, the daily 600 mg dose may be administered as two 300 mg capsules of pentosan polysulfate as described herein in the morning and evening, or as three 200 mg doses (two 100 mg capsules) in the morning, at mid-day and in the evening. Typically, administration is in the non-fed mode with subjects receiving the doses either at least one hour before a meal or at least two hours after a meal. Daily 900 mg doses may be administered as three 300 mg capsules in the morning, at mid-day and in the evening. As with the 600 mg daily dose, administration typically is in the non-fed mode with subjects receiving the doses either at least one hour before a meal or at least two hours after a meal. […]

[2] = test system: male subjects exhibiting signs and symptoms of Category III prostatitis; conditions: 200 mg bid, cited from earlier work
[3] = test system: terminally ill cancer patients; conditions: approximately 900-2100 mg/day for up to 8 months; twenty-one patients; cited from earlier work
[4] = cited from earlier work

## pentosan polysulfate
[1]
  relief of intensity and frequency of symptoms (pain, frequency and urgency of urination, nocturia, ejaculatory pain, impotence): can experience relief
[2]; after 3 months of treatment, compared with placebo
  median measurement score: lowered to a greater extent than the placebo group
[2]; after 3 months of treatment
  difference between the treatment group and the placebo group: no evident difference
[2]; treatment group
  symptoms of myalgia/arthralgia: some improvement
[3]
  patients who experienced some degree of bleeding from the rectum or digestive tract: Twenty
[4]
  oral bioavailability: approximately 3%
